The subject of this test is worker ants of Myrmica ruginodis. As to the kind of experiment: Bioassay for selection of odor source (two arms of a four-arm olfactometer). It counts as in vivo. The settings on record: 10 ants per group, 3 repetitions, max 5 min. As for the experimental part:
Bioassays were performed using the worker ants of Myrmica ruginodis which had been collected in Niigata Prefecture in Japan. The bioassays were performed using only two arms of a four-arm olfactometer (classic 4-Choice Arena Orfactometer, Sigma Scientific LLC) as shown in FIG. 5. Pure air filled in a 47 L gas cylinder was used as an air source, and the air flow rate was adjusted by a regulator. […] The ants were used as each group consisting of 10 ants, the test was started at the time of entering the ants from the inlet 1, and the selection for the odor source was made for a maximum of 5 minutes per repetition. The choice of odor source was determined by counting the number of ants in the insect separation chamber 2 at the end of the test. Five minutes after the start of the experiment, and when all 10 ants selected any one of odor sources, the results were recorded, and the tested ants were removed. Then three repetitions (using a total of 30 ants) of experiments were performed. Each cotton swab serving as an odor source was installed in each odor source installation adapter 3, and was replaced with a new one at every repetition. The glassware was washed after each repetition, and the odor source installation adapter for installing an odor source in the olfactometer was selected randomly. […]

On to `CCCCCC(=O)CC` [3-octanone], for which the “number of ants gathering at the odor source (choice of odor source)” value was “gathered in the alarm pheromone compound treatment section” (cotton swab containing 1.1 mg of mixture (3-octanone diluted with distilled water with Triton X-100) vs distilled water control, FIG. 2) and “gathered in the control section, while avoiding the alarm pheromone compound treatment section” (cotton swab containing 7.6 mg of mixture (3-octanone diluted in distilled water with Triton X-100) vs distilled water control, FIG. 1).

Source of the values: patent publication US20250000088A1, “ANT CONTROL AGENT AND ANT CONTROL METHOD” (Shin-Etsu Chemical Co., Ltd., priority 2021, published 2025).
